Two compounds from US12029768B2, “Probiotics useful for eradicating helicobacter pylori infection” (DACF S.r.l., priority 2018, dated 2024) can be followed below.

The subject of this assay is H. pylori. Briefly: Checkerboard method, adjuvant effect of probiotic supernatant on antibiotic MIC/MBC. As to conditions: for MBC / MIC: Helicobacter pylori; for MBC: read-out: MBC towards the H. pylori strain; for MIC: read-out: MIC towards the H. pylori strain. It is filed as cell-based, Helicobacter pylori.
[1] abbreviates: probiotic supernatant (L. acidophilus La-14) added to antibiotic.

The structures appear in SMILES notation. Where two headings read alike, the source gives them in different places.

`CC1(C)S[C@@H]2[C@H](NC(=O)[C@H](N)c3ccc(O)cc3)C(=O)N2[C@H]1C(=O)O` [Amoxicillin, amoxicillin]: under “antibiotic alone”, the minimum bactericidal concentration (MBC) was found to be 0.5 µg/mL and the MIC worked out at 0.25 µg/mL. Also, under setting [1], the minimal bactericidal concentration (MBC) was 0.0005 µg/mL, the minimum inhibitory concentration (MIC) turned out to be 0.00025 µg/mL, the “MIC with probiotic supernatant as fraction of the original MIC” value is recorded as 1/1000 and the “increase of antibiotic activity against H. pylori” value is reported as 1000 folds.

Take `CC[C@H]1OC(=O)[C@H](C)[C@@H](O[C@H]2C[C@@](C)(OC)[C@@H](O)[C@H](C)O2)[C@H](C)[C@@H](O[C@@H]2O[C@H](C)C[C@H](N(C)C)[C@H]2O)[C@](C)(OC)C[C@@H](C)C(=O)[C@H](C)[C@@H](O)[C@]1(C)O` [Clarithromycin, clarithromycin]: for the setting “antibiotic alone”, the minimum bactericidal concentration (MBC) amounted to 24 µg/mL and the MIC amounted to 12 µg/mL. For the same compound, under setting [1], the MBC was determined as 0.25 µg/mL, the MIC is 0.125 µg/mL, the “MIC with probiotic supernatant as fraction of the original MIC” value is 1/100 and the “increase of antibiotic activity against H. pylori” value was determined as 100 folds.
